Legend:
summer wheat = test: Crop plant compatibility (damage) post-emergence, with and without safener; type: in vivo
Description: Seeds of monocotyledonous and dicotyledonous weed and crop plants are place into sandy loam in wood fiber pots or in plastic pots, covered with soil and cultivated in a greenhouse, including during the vegetation period outdoors outside of the greenhouse, under good growth conditions. 2-3 weeks after sowing, the test plants are treated at the one- to three-leaf stage. The test compounds, formulated as wettable powders (WP) or liquid (EC) are, in various dosages with a water application rate of 300 I/ha (converted), with added wetting agent (0.2 to 0.3%), sprayed onto the plants and the surface of the soil. 3 to 4 weeks after the treatment of the test plants, the effect of the preparations is rated visually in comparison to untreated controls (herbicidal effect in percent (%): 100% effect=plants have died, 0% effect=like control plants). […]

STEME = test: Herbicidal post-emergence action, greenhouse pot test, visual rating; type: in vivo; settings: rated 3 to 4 weeks after treatment
Description: Seeds of monocotyledonous and dicotyledonous weed and crop plants are place into sandy loam in wood fiber pots or in plastic pots, covered with soil and cultivated in a greenhouse, including during the vegetation period outdoors outside of the greenhouse, under good growth conditions. 2-3 weeks after sowing, the test plants are treated at the one- to three-leaf stage. The test compounds, formulated as wettable powders (WP) or liquid (EC) are, in various dosages with a water application rate of 300 I/ha (converted), with added wetting agent (0.2 to 0.3%), sprayed onto the plants and the surface of the soil. 3 to 4 weeks after the treatment of the test plants, the effect of the preparations is rated visually in comparison to untreated controls (herbicidal effect in percent (%): 100% effect=plants have died, 0% effect=like control plants).
If it is additionally to be tested as to whether safeners can improve the plant compatibility of test substances in the case of crop plants, the following options are used for applying the safener: • seeds of the crop plants are, before sowing, dressed with the safener substance (the amount of safener is stated in percent, based on the weight of the seed) • before the application of the test substances, the crop plants are sprayed with the safener at a certain application rate per hectare (usually 1 day before the application of the test substances) • the safener is applied together with the test substance as a tank mix (the amount of safener is stated in g/ha or as a ratio, based on the herbicide).
By comparing the effect of the test substances on crop plants without or with safener treatment, it is possible to assess the effect of the safener substance.

Cc1nn(C)c(O)c1C(=O)c1ccc(C(F)(F)F)cc1S(C)(=O)=O [A]
Damage of summer wheat (summer wheat; 300 g of a.i./ha): 15%
Activity against STEME (STEME; 37.5 g of a.i./ha, 100% = plants have died): 50%

N#Cc1cc(Br)c(O)c(Br)c1 [Component B1.2, bromoxynil]
Damage of summer wheat (summer wheat; 1680 g of a.i./ha): 25%
Activity against STEME (STEME; 140 g of a.i./ha): 70%

O=C(Nc1ccc(F)cc1F)c1cccnc1Oc1cccc(C(F)(F)F)c1 [Component B4.1, diflufenican]
Activity against STEME (STEME; 75 g of a.i./ha): 70%

CCOC(=O)C1=NN(c2ccc(Cl)cc2Cl)C(C)(C(=O)OCC)C1 (stereo not drawn) [Component C1, mefenpyr-diethyl]
Activity against STEME (STEME; 9.4 g of a.i./ha): 0%

Source: patent US7951751B2, “Synergistic, crop plant-compatible herbicidal compositions comprising herbicides from the group of the benzoylpyrazoles” (Bayer Crop Science AG, priority 2005, dated 2011)
